According to patent publication US20090318446A1, “4-(1H-Indol-3-yl)-Pyrimidin-2-Ylamine Derivatives and Their Use in Therapy” (Cyclacel Limited, priority 2005, published 2009):
Where two headings read alike, the source gives them in different places.

Assays:
Format in all cases: biochemical
CDK9/cyclin T1 = CDK9/cyclin T1 (Homo sapiens, UniProt P50750); test: CDK 9 assay
Description: CTD peptide substrate (biotinyl-Ahx-(Tyr-Ser-Pro-Thr-Ser-Pro-Ser)4-NH2; 1-2 mg/mL) and recombinant human CDK7/cyclin H, CDK9/cyclin TI, or CDK9/cyclin K (0.5-2 μg) were incubated for 45 min at 30° C. in the presence of varying amounts of test compound in 20 mM MOPS pH 7.2, 25 mM β-glycerophosphate, 5 mM EGTA, 1 mM DTT, 1 mM sodium vanadate, 15 mM MgCl2, and 100 μM ATP (containing a trace amount of ^32PγATP) in a total volume of 25 μL in a 96-well microtiter plate. The reaction was stopped by placing the plate on ice for 2 min. Avidin (50 μg) was added to each well, and the plate was incubated at room temp for 30 min. The samples were transferred to a 96-well P81 filter plate, and washed (4×200 μL per well) with 75 mM phosphoric acid. Microscint 40 scintillation liquid (50 μL) was added to each well, and the amount of ^32P incorporation for each sample was measured using a Packard Topcount microplate scintillation counter.

aurora-A = target: T1, aurora-A (Homo sapiens, UniProt O14965); test: Aurora-A (human) kinase assay
T1 construct: purchased Upstate, Dundee, UK
T1 sequence (O14965 1-403): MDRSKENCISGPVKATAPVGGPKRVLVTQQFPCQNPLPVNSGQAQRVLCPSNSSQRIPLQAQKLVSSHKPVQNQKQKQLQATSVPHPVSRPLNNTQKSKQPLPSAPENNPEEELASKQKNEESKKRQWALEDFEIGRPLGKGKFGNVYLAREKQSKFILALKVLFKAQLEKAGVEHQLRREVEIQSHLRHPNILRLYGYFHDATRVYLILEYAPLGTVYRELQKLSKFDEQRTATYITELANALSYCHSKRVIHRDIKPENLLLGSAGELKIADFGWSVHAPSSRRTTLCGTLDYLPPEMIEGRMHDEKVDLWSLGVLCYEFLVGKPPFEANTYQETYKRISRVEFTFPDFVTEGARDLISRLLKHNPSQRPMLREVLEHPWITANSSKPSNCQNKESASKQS
Description: (§1) This was achieved by measurement of incorporation of radioactive phosphate from ATP into Kemptide substrate (LRRASLG), upon phosphorylation by commercially obtained aurora-A (human, Upstate, Dundee, UK). Assays were performed using 96-well plates and appropriate assay buffers (20 mM Tris, 25 mM β-glycerophosphate, 5 mM EGTA, 1 mM DTT, 1 mM sodium vanadate, pH 7.5), into which were added 2-5 ng of active enzyme with 500 μM substrate (Kemptide). The reactions were initiated by addition of MgATP mix (15 mM MgCl2+100 μM ATP with 15-25 kBq per well of [γ-^32P]-ATP) and mixtures incubated for 30 min at 30° C. Reactions were stopped by addition of an equal volume of 75 mM aq orthophosphoric acid, followed by filtration through p81 filterplates (Whatman Polyfiltronics, Kent, UK). After washing 4 times with 75 mM aq orthophosphoric acid, plates were dried, scintillant added and incorporated radioactivity measured in a scintillation counter (TopCount, Packard Instruments, Pangbourne, Berks, UK). Compounds for kinase assay were made up as 10 mM stocks in DMSO and diluted into 10% DMSO in assay buffer. Data was analysed using curve-fitting software (XLfit version 4.0.2, IDBS, Guildford, Surrey, UK) to determine IC50 values (concentration of test compound which inhibits kinase activity by 50%).

Flt-3 = target: T2, Flt-3 (Homo sapiens, UniProt P36888); test: Flt3 kinase assay
T2 construct: purchased Upstate, Dundee, UK
T2 sequence (P36888 564-993 limits assumed): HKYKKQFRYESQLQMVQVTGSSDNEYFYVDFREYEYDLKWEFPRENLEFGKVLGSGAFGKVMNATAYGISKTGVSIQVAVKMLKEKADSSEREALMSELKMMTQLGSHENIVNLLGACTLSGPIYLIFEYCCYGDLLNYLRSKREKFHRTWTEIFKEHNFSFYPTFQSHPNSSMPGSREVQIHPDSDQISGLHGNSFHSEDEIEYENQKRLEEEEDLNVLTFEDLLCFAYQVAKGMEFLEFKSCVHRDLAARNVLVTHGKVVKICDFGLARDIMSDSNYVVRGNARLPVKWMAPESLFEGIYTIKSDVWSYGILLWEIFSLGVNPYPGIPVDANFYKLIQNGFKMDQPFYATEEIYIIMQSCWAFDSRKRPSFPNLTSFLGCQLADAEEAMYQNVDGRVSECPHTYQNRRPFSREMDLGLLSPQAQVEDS
Description: as §1, with “myelin basic protein (MBP) substrate,” for “Kemptide substrate (LRRASLG),”, “Flt-3” for “aurora-A (human,”, “5” for “2-5”, “0.4 mg/ml” for “500 μM”, “(MBP).” for “(Kemptide).”

[1] = Table 2, read-out: Kinase inhibition IC50 CDK9T1
[2] = Table 3, read-out: Kinase inhibition CDK9T1
[3] = Table 2, read-out: Kinase inhibition IC50 Aurora A
[4] = Table 2, read-out: Kinase inhibition IC50 FLT3
[5] = Table 3, read-out: Kinase inhibition Flt3
[6] = Table 3, values without asterisk, read-out: Kinase inhibition Aurora A

CDK9/cyclin T1, sequence (P50750 whole entry): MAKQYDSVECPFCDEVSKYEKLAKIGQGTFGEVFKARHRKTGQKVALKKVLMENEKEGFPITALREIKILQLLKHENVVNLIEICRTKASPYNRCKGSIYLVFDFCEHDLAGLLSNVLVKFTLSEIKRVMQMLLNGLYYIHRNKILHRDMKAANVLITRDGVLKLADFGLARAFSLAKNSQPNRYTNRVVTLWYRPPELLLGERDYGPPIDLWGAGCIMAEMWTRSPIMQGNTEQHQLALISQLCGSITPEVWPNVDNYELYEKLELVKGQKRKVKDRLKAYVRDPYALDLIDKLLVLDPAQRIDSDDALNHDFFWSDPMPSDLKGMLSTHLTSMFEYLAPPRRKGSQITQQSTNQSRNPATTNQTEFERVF
CDK9/cyclin T1, sequence (O60563 whole entry partner): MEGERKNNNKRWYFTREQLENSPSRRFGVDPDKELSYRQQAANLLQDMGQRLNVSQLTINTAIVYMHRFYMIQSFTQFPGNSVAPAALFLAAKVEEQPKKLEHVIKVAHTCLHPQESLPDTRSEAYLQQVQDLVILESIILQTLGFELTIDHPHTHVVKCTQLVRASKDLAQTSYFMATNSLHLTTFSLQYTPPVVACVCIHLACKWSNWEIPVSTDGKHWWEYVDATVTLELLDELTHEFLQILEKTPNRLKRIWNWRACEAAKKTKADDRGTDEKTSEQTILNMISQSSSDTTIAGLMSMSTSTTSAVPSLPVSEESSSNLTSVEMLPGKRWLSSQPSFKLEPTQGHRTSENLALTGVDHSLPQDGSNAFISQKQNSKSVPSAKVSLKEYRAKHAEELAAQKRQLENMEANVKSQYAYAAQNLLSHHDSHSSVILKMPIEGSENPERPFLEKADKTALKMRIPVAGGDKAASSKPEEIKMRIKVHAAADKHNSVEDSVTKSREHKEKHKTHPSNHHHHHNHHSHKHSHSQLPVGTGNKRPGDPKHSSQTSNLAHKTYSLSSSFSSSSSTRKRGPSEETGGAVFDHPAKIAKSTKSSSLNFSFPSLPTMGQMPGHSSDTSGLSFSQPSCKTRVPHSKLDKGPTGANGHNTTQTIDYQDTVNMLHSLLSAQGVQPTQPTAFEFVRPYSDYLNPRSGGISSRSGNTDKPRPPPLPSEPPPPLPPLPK

O=[N+]([O-])c1cccc(Nc2nccc(-c3c[nH]c4ccccc34)n2)c1 [Compound 2, [4-(1H-Indol-3-yl)-pyrimidin-2-yl]-(3-nitro-phenyl)-amine]
IC50 (CDK9/cyclin T1; [1]): 6100 nM | IC50 (CDK9/cyclin T1; [2]): 6080 nM | IC50 (aurora-A; [3]): 270 nM | IC50 (Flt-3; [4]): 130 nM | IC50 (Flt-3; [5]): 133 nM

COc1ccc(Nc2nccc(-c3c[nH]c4ccccc34)n2)cn1 [Compound 4, [4-(1H-Indol-3-yl)-pyrimidin-2-yl]-(6-methoxy-pyridin-3-yl)-amine]
IC50 (CDK9/cyclin T1; [1]): 2800 nM | IC50 (CDK9/cyclin T1; [2]): 2820 nM | IC50 (aurora-A; [3]): 240 nM | IC50 (Flt-3; [4]): 150 nM | IC50 (Flt-3; [5]): 148 nM

CC(=O)N1CCN(c2ccc(Nc3nccc(-c4c[nH]c5ccccc45)n3)cc2)CC1 [Compound 6, 4-(1H-indol-3-yl)-N-(4-acetylpiperazin-1-ylphenyl)pyrimidin-2-amine]
IC50 (CDK9/cyclin T1; [2]): 2080 nM | IC50 (aurora-A; [6]): 130 nM | IC50 (Flt-3; [5]): 13.3 nM

CC1CN(c2ccc(Nc3nccc(-c4c[nH]c5ccccc45)n3)cc2)CC(C)O1 (stereo not shown) [Compound 9]
IC50 (CDK9/cyclin T1; [2]): 3030 nM | IC50 (aurora-A; [6]): 277 nM | IC50 (Flt-3; [5]): 29.8 nM

CN(C)c1ccc(Nc2nccc(-c3c[nH]c4ccccc34)n2)cc1 [Compound 10, N′-[4-(1H-indol-3-yl)pyrimidin-2-yl]-N,N-dimethylbenzene-1,4-diamine]
IC50 (CDK9/cyclin T1; [2]): 1590 nM | IC50 (aurora-A; [6]): 282 nM | IC50 (Flt-3; [5]): 84.9 nM

Fc1ccc(Nc2nccc(-c3c[nH]c4ccccc34)n2)cc1 [Compound 3, (4-Fluoro-phenyl)-[4-(1H-indol-3-yl)-pyrimidin-2-yl]-amine]
IC50 (CDK9/cyclin T1; [1]): > 100000 nM | IC50 (aurora-A; [3]): 1100 nM | IC50 (Flt-3; [4]): 270 nM | IC50 (Flt-3; [5]): 274 nM

c1ccc2c(-c3ccnc(Nc4ccc(N5CCNCC5)cc4)n3)c[nH]c2c1 [Compound 7, 4-(1H-indol-3-yl)-N-(4-piperazin-1-ylphenyl)pyrimidin-2-amine]
IC50 (CDK9/cyclin T1; [2]): 520 nM | IC50 (aurora-A; [6]): 221 nM | IC50 (Flt-3; [5]): 12.7 nM

CC(=O)N1CCN(c2ccc(Nc3nccc(-c4c[nH]c5c(C)cccc45)n3)cc2)CC1 [Compound 23]
IC50 (CDK9/cyclin T1; [2]): 1540 nM | IC50 (aurora-A; [6]): 91.7 nM | IC50 (Flt-3; [5]): 33.2 nM

CC(=O)N1CCN(c2ccc(Nc3nccc(-c4c(C)[nH]c5ccccc45)n3)cc2)CC1 [Compound 22]
IC50 (CDK9/cyclin T1; [2]): 4440 nM | IC50 (aurora-A; [6]): 37.7 nM | IC50 (Flt-3; [5]): 11 nM

c1ccc2c(-c3ccnc(Nc4ccc(N5CCOCC5)cc4)n3)c[nH]c2c1 [Compound 5, [4-(1H-Indol-3-yl)-pyrimidin-2-yl]-(4-morpholin-4-yl-phenyl)-amine]
IC50 (CDK9/cyclin T1; [1]): > 10000 nM | IC50 (aurora-A; [3]): 58 nM | IC50 (aurora-A; [6]): 804 nM | IC50 (Flt-3; [4]): 52 nM | IC50 (Flt-3; [5]): 51.6 nM

COc1cc(Nc2nccc(-c3c[nH]c4ccccc34)n2)ccc1N1CCOCC1 [Compound 13, 4-(1H-indol-3-yl)-N-(3-methoxyl-4-morpholin-4-ylphenyl)pyrimidin-2-amine]
IC50 (CDK9/cyclin T1; [2]): 4240 nM | IC50 (aurora-A; [6]): 112 nM | IC50 (Flt-3; [5]): 2.4 nM

COc1cc(Nc2nccc(-c3c[nH]c4ccccc34)n2)cc(OC)c1OC [Compound 12, 4-(1H-indol-3-yl)-N-(3,4,5-trimethoxyphenyl)pyrimidin-2-amine]
IC50 (CDK9/cyclin T1; [2]): 1260 nM | IC50 (aurora-A; [6]): 53.4 nM | IC50 (Flt-3; [5]): 1.3 nM
